The source of these data is patent publication US20090149452A1, “XANTHINE OXIDASE INHIBITOR” (NIPPON CHEMIPHAR CO., LTD., priority 2005, published 2009).

Molecules are shown by their SMILES.

The target of data set [1] is T1, Cow milk Xanthine Oxidase (Bos taurus, UniProt P80457).
T1 construct: Cow milk Xanthine Oxidase (Roche); purchased Roche; host or cells: cow milk
Put plainly: In vitro xanthine oxidase inhibition (oxidation of xanthine, absorbance at OD 290 nm). Type of data set: biochemical. The conditions noted are these: xanthine 250 μM, 50 mM phosphate buffer pH 7.5, 30° C. 10 minutes. As to the method: The xanthine oxidase inhibiting action (in vitro test) of the compound of the invention was confirmed by measuring inhibition of oxidation of xanthine by xanthine oxidase, as described in Example 26. As is clear from Tables 11 and 12, the compounds of the invention show excellent xanthine oxidase inhibiting action.
The test compound was dissolved in dimethylsulfoxide and diluted with 50 mM phosphate buffer (pH 7.5), to give a solution of a predetermined concentration.
125 μL of each of the solutions of the test compound having different concentrations was added to 1 mL of a solution of Xanthine (SIGMA, 250 μM) in the 50 mM phosphor buffer (pH 7.5). The mixture was then pre-incubated at 30° C. for 5 min. Subsequently, to the pre-incubated mixture was added 125 μL of Cow milk Xanthine Oxidase (Roche) diluted with the 50 mM phosphate buffer (pH 7.5) to 70 mU/mL, and the mixture was subjected to reaction at 30° C. for 10 minutes. Then, 1N hydrochloric acid (200 μL) was added to the reaction mixture to terminate the reaction. Subsequently, absorbance at OD 290 nm was measured by means of a spectrophotometer (Shimadzu UV-160A), to obtain a inhibition ratio. The measured inhibition ration was used to obtain IC50.
The inhibition ratio was calculated according to the following formula:
Inhibition ratio (%)=[1−(B−C)/(A−C)]×100 • A: absorbance of control • B: absorbance measured on a sample containing test compound • C: absorbance of blank

Data set [2] concerns in-plasma uric acid value. Briefly: In vivo test: in-plasma uric acid value-inhibition ratio after single oral administration to mouse. The conditions noted are these: in-plasma uric acid inhibition ratio as activity value relative to TMX-67 (0.3 mg/kg); unfasted ICR mouse, single oral 0.3 mg/kg or 3 mg/kg, blood one hour after administration. As to the method: The xanthine oxidase inhibiting action was further confirmed in viva tests by measuring the uric acid concentration in a plasma obtained from mouse into which the compound of the invention had been orally administered. See Example 27 and Tables 11 and 12. The test compound suspended in 1% methylcellulose solution in an amount of 0.3 mg/kg or 3 mg/kg was administered to unfasted ICR mouse (7 W) by forced single oral administration. The blood was collected from main artery from the mouse under etherization after one hour from the administration. The plasma was separated from the collected blood in the conventional manner. The plasma was then subjected to measurement of uric acid value by the enzyme method by means of an automatic analytical apparatus ([…]), to obtain an in-plasma uric acid value-inhibition ratio in the test sample-administered group as compared with a ratio obtained in the normal group. Based on the obtained in-plasma uric acid inhibition ratio, activity values (%) relative to activity values obtained in the simultaneously conducted tests using TMX-67 (0.3 mg/kg).

T1 sequence (P80457 whole entry): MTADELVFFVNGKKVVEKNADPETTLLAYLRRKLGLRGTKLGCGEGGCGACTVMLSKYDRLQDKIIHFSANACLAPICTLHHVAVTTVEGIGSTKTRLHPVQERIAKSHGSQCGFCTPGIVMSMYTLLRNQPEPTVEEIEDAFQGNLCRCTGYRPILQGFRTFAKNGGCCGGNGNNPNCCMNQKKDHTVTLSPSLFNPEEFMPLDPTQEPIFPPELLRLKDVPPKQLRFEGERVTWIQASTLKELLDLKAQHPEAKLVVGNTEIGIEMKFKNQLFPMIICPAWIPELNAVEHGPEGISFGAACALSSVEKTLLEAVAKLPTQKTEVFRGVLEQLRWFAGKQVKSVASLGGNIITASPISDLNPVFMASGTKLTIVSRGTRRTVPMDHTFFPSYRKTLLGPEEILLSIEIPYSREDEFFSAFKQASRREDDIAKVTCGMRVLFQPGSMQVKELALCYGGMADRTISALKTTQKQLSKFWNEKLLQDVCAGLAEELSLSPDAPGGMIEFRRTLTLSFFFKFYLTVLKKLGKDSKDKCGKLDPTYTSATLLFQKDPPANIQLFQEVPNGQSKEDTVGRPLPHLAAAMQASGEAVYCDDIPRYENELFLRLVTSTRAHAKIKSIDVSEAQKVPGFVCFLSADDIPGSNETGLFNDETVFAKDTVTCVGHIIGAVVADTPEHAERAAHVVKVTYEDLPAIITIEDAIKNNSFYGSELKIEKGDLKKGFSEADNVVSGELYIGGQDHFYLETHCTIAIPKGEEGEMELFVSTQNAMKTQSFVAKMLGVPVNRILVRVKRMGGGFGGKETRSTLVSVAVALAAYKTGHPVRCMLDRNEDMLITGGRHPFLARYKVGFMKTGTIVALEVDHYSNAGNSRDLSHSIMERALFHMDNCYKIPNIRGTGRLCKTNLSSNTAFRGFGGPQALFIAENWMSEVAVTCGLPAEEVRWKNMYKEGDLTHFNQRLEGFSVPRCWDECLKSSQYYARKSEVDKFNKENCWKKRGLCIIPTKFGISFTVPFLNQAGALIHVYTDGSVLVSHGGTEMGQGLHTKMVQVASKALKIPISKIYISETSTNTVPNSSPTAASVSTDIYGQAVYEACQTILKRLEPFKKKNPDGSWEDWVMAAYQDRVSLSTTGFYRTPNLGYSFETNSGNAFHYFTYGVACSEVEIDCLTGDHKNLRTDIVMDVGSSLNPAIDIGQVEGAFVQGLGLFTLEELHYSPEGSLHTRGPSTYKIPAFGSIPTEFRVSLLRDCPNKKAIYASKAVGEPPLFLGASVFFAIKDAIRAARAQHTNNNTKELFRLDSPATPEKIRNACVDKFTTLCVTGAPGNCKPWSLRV

By IC50 is commonly meant the concentration that inhibits the measured activity by half. The low end stands for greater potency in that assay, the high end for weaker potency in that assay. Broadly, the melting point is the temperature of the solid-liquid transition. Compound `N#Cc1cc(-c2nc3cncnc3s2)ccc1Oc1ccc(F)cc1` [Example 1, 2-[4-(4-fluorophenoxy)-3-cyanophenyl]thiazolo[5,4-d]pyrimidine] returned a melting point of 175 to 177 °C. Half-maximal inhibition in data set [1] (IC50) required 280 nM. Also, the “In Vivo (%) TMX-67 (0.3 mg/kg)” value in data set [2] worked out at 132%.

Compound `N#Cc1cc(-c2nc3cncnc3s2)ccc1Oc1ccccc1` [Example 2, 2-[3-Cyano-4-phenoxyphenyl)thiazolo[5,4-d]-pyrimidine] displayed a melting point of 154 to 156 °C. In data set [1], this compound registered an IC50 of 139 nM. The “In Vivo (%) TMX-67 (0.3 mg/kg)” value in data set [2] worked out at 114%.

Compound `N#Cc1cc(-c2nc3cncnc3s2)ccc1Oc1cccnc1` [Example 3, 2-[3-Cyano-4-(3-pyridyloxy)phenyl]thiazolo-[5,4-d]pyrimidine] yielded a melting point of 210 to 212 °C. In addition, half-maximal inhibition in data set [1] (IC50) required 273 nM. Moreover, the “In Vivo (%) TMX-67 (0.3 mg/kg)” value in data set [2] is given as 90%.

The compound `N#Cc1cc(-c2nc3cncnc3[nH]2)ccc1Oc1ccc(F)cc1` [Example 4, 8-[3-Cyano-4-(4-fluorophenoxy)phenyl]-9H-purine] registered a melting point above 250 °C. For the same compound, it took 33 nM to reach half-maximal inhibition in data set [1] (IC50). For the same compound, the “In Vivo (%) TMX-67 (0.3 mg/kg)” value in data set [2] came out at 33%.

In turn, `N#Cc1cc(-c2nc3cncnc3s2)ccc1Oc1ccccc1F` [Example 5, 2-[3-Cyano-4-(2-fluorophenoxy)phenyl]-thiazolo[5,4-d]pyrimidine] gave a melting point of 195 to 196 °C. The compound also came in with an IC50 in data set [1] of 103 nM. The “In Vivo (%) TMX-67 (0.3 mg/kg)” value in data set [2] is given as 141%.

On to `N#Cc1cc(-c2nc3cncnc3s2)ccc1Oc1cccc(F)c1` [Example 6, 2-[3-Cyano-4-(3-fluorophenoxy)phenyl]-thiazolo[5,4-d]pyrimidine], for which the melting point is 189 to 190 °C. Besides, the IC50 in data set [1] is 389 nM. Also, the “In Vivo (%) TMX-67 (0.3 mg/kg)” value in data set [2] was determined as 127%.

For `N#Cc1cc(-c2nc3cncnc3s2)ccc1Sc1ccc(F)cc1` [Example 7, 2-[3-Cyano-4-(4-fluorophenylthio)phenyl]-thiazolo[5,4-d]pyrimidine], the melting point was 190 to 195 °C. The compound further came in with an IC50 in data set [1] of 239 nM. Besides, in data set [2], the “In Vivo (%) TMX-67 (0.3 mg/kg)” value turned out to be 109%.

Turning to `N#Cc1cc(-c2nc3cncnc3s2)ccc1Oc1ccccc1O` [Example 8, 2-[3-Cyano-4-(2-hydroxyphenoxy)phenyl]thiazolo[5,4-d]pyrimidine], the melting point is 255 to 256 °C. In addition, the IC50 in data set [1] was 103 nM. Besides, the “In Vivo (%) TMX-67 (0.3 mg/kg)” value in data set [2] is reported as 52%.

As to `N#Cc1cc(-c2nc3cncnc3s2)ccc1Oc1ccc(Cl)cc1` [Example 9, 2-[4-(4-Chlorophenyloxy)-3-cyanophenyl]-thiazolo[5,4-d]pyrimidine], the melting point lay within 179 to 180 °C. For the same compound, inhibition in data set [1] was half-maximal at 298 nM (IC50). Moreover, the “In Vivo (%) TMX-67 (0.3 mg/kg)” value in data set [2] stood at 120%.

For the compound `N#Cc1cc(-c2nc3cncnc3s2)ccc1Sc1ccccc1F` [Example 10, 2-[3-Cyano-4-(2-fluorophenylthio)phenyl]-thiazolo[5,4-d]pyrimidine], the melting point fell in the range of 178 to 180 °C. In addition, the IC50 in data set [1] was determined as 127 nM. Moreover, the “In Vivo (%) TMX-67 (0.3 mg/kg)” value in data set [2] came out at 115%.

`N#Cc1cc(-c2nc3cncnc3s2)ccc1Sc1ccccc1` [Example 11, 2-(3-Cyano-4-phenylthiophenyl)thiazolo[5,4-d]pyrimidine] registered a melting point of 173 to 176 °C. The IC50 in data set [1] is 196 nM. In data set [2], the “In Vivo (%) TMX-67 (0.3 mg/kg)” value is listed as 110%.

With `C=CCOc1ccc(-c2nc3cncnc3s2)cc1C#N` [Example 12, 2-(4-Allyloxy-3-cyanophenyl)thiazolo[5,4-d]-pyrimidine], the melting point was 202.6 to 207.6 °C. The IC50 in data set [1] came out at 310 nM. Moreover, the “In Vivo (%) TMX-67 (0.3 mg/kg)” value in data set [2] came to 52%.

Regarding `N#Cc1cc(-c2nc3cncnc3s2)ccc1N1CCOCC1` [Example 13, 2-(3-Cyano-4-morpholin-4-ylphenyl)thiazolo-[5,4-d]pyrimidine], the melting point was 232 to 234 °C (dec.). The “In Vivo (%) TMX-67 (0.3 mg/kg)” value in data set [2] came to 40%.

Turning to `CN1CCN(c2ccc(-c3nc4cncnc4s3)cc2C#N)CC1` [Example 14, 2-[3-Cyano-4-(4-methyl-1-piperazinyl)phenyl]thiazolo[5,4-d]pyrimidine], the melting point was 163 to 165 °C (dec.). The “In Vivo (%) TMX-67 (0.3 mg/kg)” value in data set [2] was found to be 43%.

In turn, `N#Cc1cc(-c2nc3cncnc3s2)ccc1Oc1cccc(Cl)c1` [Example 15, 2-[4-(3-Chlorophenyloxy)-3-cyanophenyl]-thiazolo[5,4-d]pyrimidine] yielded a melting point of 171 to 173 °C. For the same compound, in data set [2], the “In Vivo (%) TMX-67 (0.3 mg/kg)” value came out at 87%.

On to `N#Cc1cc(-c2nc3cncnc3s2)ccc1N1CCSCC1` [Example 16, 2-[3-Cyano-4-(thiomorpholin-4-yl)phenyl]-thiazolo[5,4-d]pyrimidine], for which the melting point is 170 to 175 °C (dec.). The “In Vivo (%) TMX-67 (0.3 mg/kg)” value in data set [2] was 34%.

Regarding `N#Cc1cc(-c2nc3cncnc3s2)ccc1Oc1ccccc1Cl` [Example 17, 2-[4-(2-Chlorophenyloxy)-3-cyanophenyl]thiazolo[5,4-d]pyrimidine], the melting point fell in the range of 209 to 211 °C. In addition, the “In Vivo (%) TMX-67 (0.3 mg/kg)” value in data set [2] is recorded as 86%.

Turning to `N#Cc1cc(-c2nc3cncnc3o2)ccc1Oc1ccc(F)cc1` [Example 18, 2-[3-Cyano-4-(4-fluorophenoxy)phenyl]oxazolo[5,4-d]-pyrimidine], the “In Vivo (%) TMX-67 (0.3 mg/kg)” value in data set [2] is 71%.

`N#Cc1cc(-c2nc3cncnc3s2)ccc1Sc1cccc(F)c1` [Example 19, 2-[3-Cyano-4-(3-fluorophenylthio)phenyl]-thiazolo[5,4-d]pyrimidine] displayed a melting point of 189 to 190 °C. The “In Vivo (%) TMX-67 (0.3 mg/kg)” value in data set [2] stood at 171%.

Take `N#Cc1cc(-c2nc3cncnc3s2)ccc1Oc1ccccc1N` [Example 20, 2-[4-(2-Aminophenoxy)-3-cyanophenyl]thiazolo[5,4-d]-pyrimidine]: the melting point is 256 to 259 °C (dec.). The IC50 in data set [1] was found to be 58 nM.

Consider `Cl.N#Cc1cc(-c2nc3cncnc3s2)ccc1Oc1cccnc1` [Example 21, 2-[3-Cyano-4-(3-pyridyloxy)phenyl]thiazolo-[5,4-d]pyrimidine hydrochloride], for which the melting point lay in the range of 204 to 206 °C. In data set [2], the “In Vivo (%) TMX-67 (0.3 mg/kg)” value is given as 68%.

Consider `N#Cc1cc(-c2nc3cncnc3s2)ccc1Oc1ccc(O)cc1` [Example 22, 2-[3-Cyano-4-(4-hydroxyphenoxy)phenyl]thiazolo[5,4-d]pyrimidine], for which the melting point was above 250 °C. In data set [1], the IC50 worked out at 72 nM.

Regarding `N#Cc1cc(-c2nc3cncnc3s2)ccc1Oc1ccc(O)cc1.[K]` [Example 25, 2-[3-Cyano-4-(4-hydroxyphenoxy)phenyl]thiazolo[5,4-d]pyrimidine potassium salt], the “In Vivo (%) TMX-67 (0.3 mg/kg)” value in data set [2] turned out to be 35%.
